From paper PMC12587574, “Mass balance, pharmacokinetics, metabolism, and excretion of radiolabeled acoziborole, a potential novel treatment for human African trypanosomiasis, following single microtracer oral dose to humans” (Antimicrobial Agents and Chemotherapy, 2025)
Several values for one entry are separate records, joined by “and”; a condition that tells them apart may be missing. Equal entries are not always repeated.

Tests used:
[1] = Metabolite profiling and identification in pools of plasma, urine and feces (UPLC-MS, AMS); format: in vivo, human
Protocol: Individual pools of plasma (0–336 h, including time points at 1, 4, 9, 12, 24, 48, 72, 96, 120, 168, 240, and 336 h), urine (0–240 h, including time intervals 0–6, 6–12, 12–24, 24–48, 48–72, 72–96, 96–120, 120–168, 168–192, 192–216, and 216–240 h) and feces homogenates (0–240 h, including time intervals 0–6, 6–12, 12–24, 24–48, 48–72, 72–96, 96–120, 120–168, and 168–240 h) were prepared; for plasma this was done according to the method described in reference and for feces by using equal percentages per time point based on total volume. Subsequently, a pool per matrix was prepared by mixing equal volumes of each participant pool. In addition, a plasma pre-dose pool was prepared by mixing equal volumes of each pre-dose sample. For urine and feces, TNO blank pool was used to generate a pre-dose sample. Samples were stored below −18°C. Samples (100 µL plasma, 250 µL urine, and 200 mg feces) were pre-treated and injected onto an ultra-high performance liquid chromatography (UPLC)-MS system (Acquity UPLC system [Waters] coupled to a Q-Exactive [Thermo]; Acquity HSS C18 VanGuard 5 mm × 2.1 mm, 1.8 µm [Waters] pre-column and Acquity HSS C18 100 mm × 2.1 mm, 1.8 µm d.p. [Waters]). Fractions were collected and analyzed off-line by AMS. AMS analysis was performed on an AMS system, consisting of an elemental analyzer, a double gas interface, and a 1 MV multi-element AMS. All fecal homogenate sample analyzes were performed in triplicate. Plasma pre-dose and TNO blank urine and feces pools were used for background correction. The UPLC method qualification included determination of retention time stability and extraction recovery. Metabolites were tentatively assigned to fractions in which activity greater than the baseline was observed, based on retention time and structural information provided by DNDi. Presence of the metabolite was confirmed by accurate mass data from high-resolution mass spectrometric analysis.

[2] = Excretion and mass balance of total radioactivity in urine and feces (AMS); format: in vivo, human
Protocol: Urine samples were collected before IP administration (single urine void) and then during intervals of 0–6, 6–12, 12–24, 24–48, 48–72, 72–96, 96–120, 120–168, 168–192, 192–216, and 216–240 h post-dose and for the additional 48-h collection period starting on Day 15 post-dose, that is, 336–384 h. Samples were acidified with citric acid to avoid acoziborole degradation and were refrigerated until the end of the block collection periods. The total weight and volume of urine were then recorded. At the end of each collection period, two aliquots of acidified urine (20 mL) were taken from the sample and stored in polypropylene tubes at −20°C until further analysis for total radioactivity. Two aliquots of 1 mL acidified urine were collected into tubes containing bovine serum albumin in aqueous solution (to avoid non-specific adsorption of acoziborole) and NaCl for acoziborole and SCYX-3109 assays. Urine samples for metabolite profiling were pooled for each participant according to the time intervals reported above, from 0 to 240 h.
Feces were collected before dosing and at block intervals of 0–6, 6–12, 12–24, 24–48, 48–72, 72–96, 96–120, 120–168, and 168–240 h post-dose and for five additional 48-h home collection periods starting on Days 15, 29, 59, 89, and 119. At the end of each collection period, a portion of the sample (50 g) was retained and stored at approximately −20°C until analyzed. The remaining fecal homogenate was combined with that collected at the end of each time interval and stored at approximately −20°C.
TNO (Leiden, the Netherlands) performed the analysis of total radioactivity and the metabolite profiling and identification. All blood, plasma, urine, and fecal homogenate samples were analyzed for total radioactivity by accelerator mass spectrometry (AMS). AMS analysis was performed on a 1 MV multi-element AMS, model 4110 Bo, high voltage engineering (software: AMS 155), using Australian National University (ANU) sucrose-8542 (C12H22O11) with a certified ^14C/^12C isotope ratio ([10]) as the system suitability test sample and [^14C]-paracetamol as an AMS quality check sample.
For each (diluted) sample, 5 µL blood, 5 µL plasma, 15 µL urine, or 30 mg fecal homogenate prepared in 1% CMC solution (1% CMC solution:feces ratio of 4:1) were transferred to tin foil cups. The samples were dried under a stream of nitrogen and subsequently placed in the elemental analyzer (EA, Vario Micro, Elementar, Germany), which acts as an autosampler and combustion device for the AMS. Single samples of blood, plasma, and urine were analyzed. Fecal homogenates were analyzed in triplicate, and the averaged value was reported. Total radioactivity in plasma and blood was expressed as ng equivalents (Eq) of acoziborole/mL. The LLOQ was 47.3 ngEq/mL in plasma (1.51 mBq/mL), 165.4 ngEq/mL in blood (5.28 mBq/mL), 33.8 ngEq/mL in urine (1.08 mBq/mL), and 87.1 ngEq/mL in feces (2.78 mBq/mL).
Blood-to-plasma ratio was calculated based on Cmax and AUC values. For total radioactivity excreted in urine, feces, and both combined, the following parameters were calculated: total amount of total radioactivity excreted over the time interval between t1 and t2 (Aet1−t2), Aet1−t2 expressed as a percentage of the radioactive dose administered (%Aet1−t2), CumAe, and Cum%Ae. For CumAe calculation, the recovery of total radioactivity during WinNonlin time intervals in which urine and feces were not collected was estimated using the area under the excretion rate-time curve from the end of the preceding collection interval to the start of the subsequent collection interval.

[3] = 960 mg single oral dose, N = 6, mean and SD
[4] = 960 mg single oral dose, N = 6, mean and SD, listed as [^14C]-acoziborole
[5] = t set to 1440 h (60 days), N = 6, mean and SD
[6] = t set to 1440 h (Day 60), N = 6, mean and SD, listed as [^14C]-acoziborole

## CC1(C)OB(O)c2cc(NC(=O)c3ccc(F)cc3C(F)(F)F)ccc21 [acoziborole]
[1]; 0–240 h pools
  proportion of the dose excreted, urine and feces combined: 34.2%
[1]; feces homogenates 0–240 h
  abundance relative to dose, feces: 33.6%
  relative abundance in radiochromatogram, feces homogenates pool: 66.0%
[1]; plasma pool 0–336 h, 960 mg single oral [14C]-acoziborole, listed as Parent (acoziborole)
  relative abundance in radiochromatogram (share of total radioactivity), plasma pool: 95.1%
[1]; urine pool 0–240 h
  abundance relative to dose, urine: 0.6% and < 1%
  relative abundance in radiochromatogram, urine pool: 7.6%
[1]; urine pool 0–240 h, listed as Parent (acoziborole)
  abundance relative to dose, urine: 0.6%
[2]; [3]
  Cum%Ae0-240h dose, total radioactivity recovered (urine and faeces): 58.6 ± 8.6%
  Cum%Ae0-384h dose, total radioactivity recovered (urine and faeces): 70.8 ± 8.1%
  CumAe0-240h, total radioactivity in faeces: 488.8 ± 84.8 mgEq
  CumAe0-240h, total radioactivity in urine: 74.0 ± 18.5 mgEq
  CumAe0-240h, total radioactivity recovered (urine and faeces): 562.9 ± 82.8 mgEq
  CumAe0-384h, total radioactivity in faeces: 574.9 ± 81.4 mgEq
  CumAe0-384h, total radioactivity in urine: 104.6 ± 28.9 mgEq
  CumAe0-384h, total radioactivity recovered (urine and faeces): 679.6 ± 77.5 mgEq
[2]; [4]
  Cum%Ae0-240h dose, total radioactivity in faeces: 50.9 ± 8.8%
  Cum%Ae0-240h dose, total radioactivity in urine: 7.7 ± 1.9%
  Cum%Ae0-384h dose, total radioactivity in faeces: 59.9 ± 8.5%
  Cum%Ae0-384h dose, total radioactivity in urine: 10.9 ± 3.0%
[2]; between Days 59 and 61 (up to 1,440 h)
  increment in excretion of total radioactivity: < 1%
[2]; fasting condition, assuming gastrointestinal transit time of approximately 3 days
  absorbed fraction, estimated: ≥ 70 % of the dose
[2]; over the total 1,392 h, CV% 5.5%
  geometric mean recovery of total radioactivity in urine and feces: 87.2%
[2]; [5]
  CumAe0-t, total radioactivity in faeces: 712.1 ± 56.4 mgEq
  CumAe0-t, total radioactivity recovered (urine and faeces): 838.4 ± 48.9 mgEq
[2]; [6]
  Cum%Ae0-t dose, total radioactivity in faeces: 74.2% and 74.2 ± 5.9%
  Cum%Ae0-t dose, total radioactivity recovered (urine and faeces): 87.3% and 87.3 ± 5.1%
[2]; urine collection limited to 384 h, N = 6, mean and SD
  CumAe0-t, total radioactivity in urine: 104.6 ± 28.9 mgEq
[2]; urine collection limited to 384 h, N = 6, mean and SD, listed as [^14C]-acoziborole
  Cum%Ae0-t dose, total radioactivity in urine: 10.9% and 10.9 ± 3.0%
